Laboratory results taken from patent publication US10647706B2, “Chemokine CXCR1 and CXCR2 receptor antagonist compounds, and use thereof in the treatment of chemokine-mediated pathologies” (GALDERMA RESEARCH & DEVELOPMENT, priority 2014, dated 2020).
Read-outs that look alike come from different tables or passages of the source.

Legend:
Format in all cases: cell-based
CXCR1 receptor = CXCR1 receptor (Homo sapiens (Human), UniProt P25024); assay: β-arrestin recruitment test, U2OS hCXCR1 β-arrestin cells stimulated with CXCL8; details: CXCL8 10 nM
Description: (§1) The in vitro affinity of the compounds of the present invention for the CXCR1 and CXCR2 receptors is determined on a functional test of β-arrestin recruitment type after activation of the receptor.
(§2) To evaluate the direct interaction of the CXCR2 or CXCR1 receptor with β-arrestin 2, a test of β-arrestin 2 recruitment for CXCR2 or CXCR1 based on complementation of the β-galactosidase enzyme (Olson K. R., Eglen R. M., Beta-galactosidase complementation: a cell-based luminescent assay platform for drug discovery. Assay Drug Dev. Technol. 2007 February; 5(1); 137-44), as established by DiscoveRx Corporation was used. Stimulation of these two cell lines with CXCL8 (10 nM) induces the recruitment of β-arrestin 2, as indicated by a significant increase in the induction factor. All the CXCR2 antagonists are tested in a dose-dependent manner and the concentration corresponding to 50% inhibition of the response is determined (IC50=concentration of half-inhibition).
(§3) β-Arrestin Recruitment Test: “PathHunter HEK293-CXCR2” or “U20S hCXCR1 β-arrestin” cells (DiscoveRx Corporation) were seeded overnight at 10 000 cells/well (384-well format) in 20 μl of Opti MEM I medium. Preincubation with the antagonist or the vehicle for 30 minutes at 37° C. and 5% CO2 was followed by 60 minutes of stimulation with CXCL8 at 37° C. and 5% CO2. The cells were then placed at room temperature for 30 minutes. The PathHunter detection reagent (DiscoveRx Corporation) was added. After incubation for 60 minutes at room temperature, the β-galactosidase induced by the luminescence during the β-arrestin-CXCR2 interaction was measured for 0.3 s in an Envision 2102 Multilabel Reader (PerkinElmer Life and Analytical Sciences). The data are analysed via a non-linear curve procedure using the XLFit4 (IDBS) exploitation software, and the IC50 values are determined.

CXCR2 receptor = CXCR2 receptor (Homo sapiens (Human), UniProt P25025); assay: β-arrestin recruitment test, PathHunter HEK293-CXCR2 cells stimulated with CXCL8; details: CXCL8 10 nM
Description: as §1, §2, §3

human neutrophils = assay: Neutrophil migration (chemotaxis assay, Transwell, IL-8); details: 10 nM IL-8, 1 hour incubation
Description: Purification and culturing of human neutrophils Peripheral blood preparations (18-24 hours) are collected in duly registered clinics or clinical laboratories from healthy volunteers who consented to the re-use of their blood for scientific research (Supplier: Biopredic International). The neutrophils are separated from the whole blood via a positive selection (Whole Blood CD15 MicroBeads: MiltenyiBiotech, Reference: 130-091-058). The cells are resuspended at a rate of 4×10^6 cells per mL in RPMI 1640 culture medium (Invitrogen) supplemented with filtered and heat-inactivated 5% foetal calf serum (FCS) (Invitrogen).
The experiments were performed in “HTS Transwell 96 Well Permeable Supports 3-μm pore size” filter plates (Corning, Reference: 3386). The response doses of CXCRS antagonists are applied in the lower compartments of the plates in the presence of 10 nM of IL-8 (1-72 aa, R&D Systems, Cat. No. IL-208). The neutrophils are then seeded in the upper compartment (2×10^5 cells/well). After 1 hour of incubation at 37° C. and 5% CO2, the number of viable cells that have crossed the membrane and are in the lower compartment is determined via a colorimetric method (CellTiter 96® AQueous One Solution Cell Proliferation Assay—PROMEGA Cat # G3581). Each treatment condition is evaluated in duplicate. The IC50 values are calculated with the XLFit4 software.

[1] = Homo sapiens, Neutrophil, class symbols, read-out: Migration of human neutrophils IC50
[2] = Homo sapiens, Neutrophil, read-out: Migration of h neutrophils IC50

Sequence of CXCR1 receptor (P25024 whole entry): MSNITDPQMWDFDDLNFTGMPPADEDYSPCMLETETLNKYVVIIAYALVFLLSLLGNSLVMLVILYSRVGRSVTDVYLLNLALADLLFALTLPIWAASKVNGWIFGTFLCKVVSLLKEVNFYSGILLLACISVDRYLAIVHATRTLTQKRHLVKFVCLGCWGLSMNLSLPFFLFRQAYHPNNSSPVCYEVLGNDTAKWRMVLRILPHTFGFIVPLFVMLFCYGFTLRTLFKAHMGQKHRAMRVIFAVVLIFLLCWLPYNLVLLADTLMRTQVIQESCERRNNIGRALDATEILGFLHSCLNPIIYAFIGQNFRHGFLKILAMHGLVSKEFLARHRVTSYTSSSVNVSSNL
Sequence of CXCR2 receptor (P25025 whole entry): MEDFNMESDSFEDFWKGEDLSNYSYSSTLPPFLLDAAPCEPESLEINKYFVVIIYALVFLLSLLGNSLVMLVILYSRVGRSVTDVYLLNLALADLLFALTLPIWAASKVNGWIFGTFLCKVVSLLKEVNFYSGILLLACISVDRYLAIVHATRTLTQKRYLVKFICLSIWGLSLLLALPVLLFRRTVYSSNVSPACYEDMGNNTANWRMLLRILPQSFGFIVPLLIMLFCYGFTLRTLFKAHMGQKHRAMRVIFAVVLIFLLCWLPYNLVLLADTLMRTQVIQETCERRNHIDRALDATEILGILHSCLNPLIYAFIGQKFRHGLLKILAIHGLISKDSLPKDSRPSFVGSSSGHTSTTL

SMILES: CC[C@@H](Nc1c(Nc2cccc(S(C)(=O)=NC)c2O)c(=O)c1=O)c1ccc(C)o1 (single isomer, unassigned; (+)) [Example 16]
- IC50 (CXCR1 receptor): 36 nM
- IC50 (CXCR2 receptor): 18 nM
- IC50 (CXCR2 receptor; class symbols): < 20 nM
- IC50 (human neutrophils; [1]): ≥ 300 nM
- IC50 (human neutrophils; [2]): 356 nM

SMILES: CS(=N)(=O)c1c(Cl)ccc(NC(=O)Nc2cccc(F)c2Cl)c1O (stereo not shown) [Example 6, 1-(2-Chloro-3-fluorophenyl)-3-(4-chloro-2-hydroxy-3-methanesulfoximinephenyl)-urea]
- IC50 (CXCR1 receptor; class symbols): ≥ 200 nM
- IC50 (CXCR2 receptor; class symbols): ≥ 20 nM

SMILES: CC[C@@H](Nc1c(Nc2ccc(Cl)c(S(C)(=O)=Nc3ccncc3)c2O)c(=O)c1=O)c1ccc(C)o1 (stereo partly drawn) [Example 3, 3-{4-Chloro-2-hydroxy-3-methane[(N-pyridin-4-yl)sulfoximino]phenylamino}-4-[(R)-1-(5-methylfuran-2-yl)propylamino]cyclobut-3-ene-1,2-dione]
- IC50 (CXCR1 receptor; class symbols): ≥ 200 nM
- IC50 (CXCR2 receptor; class symbols): ≥ 20 nM

SMILES: CN=S(C)(=O)c1c(Cl)ccc(Nc2c(N[C@@H](c3ccc(C)o3)[C@H]3CCCS3)c(=O)c2=O)c1O (stereo partly drawn) [Example 5, 3-{4-Chloro-2-hydroxy-3-methane[(N-methyl)sulfoximino]phenylamino}-4-{[(S)-(5-methylfuran-2-yl)-(R)-tetrahydrothiophen-2-ylmethyl]amino}cyclobut-3-ene-1,2-dione]
- IC50 (CXCR1 receptor; class symbols): < 200 nM
- IC50 (CXCR2 receptor; class symbols): ≥ 20 nM
- IC50 (human neutrophils; [1]): < 300 nM

SMILES: CC[C@@H](Nc1c(Nc2cccc(S(C)(=O)=NC)c2O)c(=O)c1=O)c1ccccn1 (single isomer, unassigned; (-)) [Example 15]
- IC50 (CXCR1 receptor; class symbols): ≥ 200 nM

SMILES: CC[C@@H](Nc1c(Nc2ccc(Cl)c(S(C)(=O)=NC)c2O)c(=O)c1=O)c1ccc(C)o1 (stereo partly drawn) [Example 2, 3-{4-Chloro-2-hydroxy-3-methane[(N-methyl)sulfoximino]phenylamino}-4-[(R)-1-(5-methylfuran-2-yl)propylamino]cyclobut-3-ene-1,2-dione]
- IC50 (human neutrophils; class symbols, read-out: Migration of human neutrophils IC50): < 300 nM

SMILES: CC[C@@H](Nc1c(Nc2ccc(Cl)c(S(C)(=O)=NC)c2O)c(=O)c1=O)c1ccccn1 (single isomer, unassigned; (+)) [Example 13]
- IC50 (CXCR1 receptor; class symbols): ≥ 200 nM
- IC50 (CXCR2 receptor; class symbols): ≥ 20 nM

SMILES: CC[C@@H](Nc1c(Nc2ccc(Cl)c(S(C)(=O)=NC)c2O)c(=O)c1=O)c1ccccn1 (single isomer, unassigned; (-)) [Example 12]
- IC50 (CXCR1 receptor): 28 nM
- IC50 (CXCR1 receptor; class symbols): < 200 nM
- IC50 (CXCR2 receptor): 16 nM
- IC50 (CXCR2 receptor; class symbols): < 20 nM
- IC50 (human neutrophils; [1]): < 300 nM
- IC50 (human neutrophils; [2]): 82 nM

SMILES: CC[C@@H](Nc1c(Nc2cccc(S(C)(=O)=NC)c2O)c(=O)c1=O)c1ccccn1 (single isomer, unassigned; (-)) [Example 14]
- IC50 (CXCR1 receptor; class symbols): < 200 nM
- IC50 (CXCR2 receptor; class symbols): ≥ 20 nM
- IC50 (human neutrophils; [1]): ≥ 300 nM

SMILES: CN=S(C)(=O)c1c(Cl)ccc(NC(=O)Nc2cccc(F)c2Cl)c1O (stereo not shown) [Example 7, 1-(2-Chloro-3-fluorophenyl)-3-{4-chloro-2-hydroxy-3-methane[(N-methyl)sulfoximino]phenyl}urea]
- IC50 (CXCR1 receptor; class symbols): ≥ 200 nM
- IC50 (CXCR2 receptor; class symbols): ≥ 20 nM

SMILES: CC[C@@H](Nc1c(Nc2ccc(Cl)c(S(C)(=N)=O)c2O)c(=O)c1=O)c1ccc(C)o1 (stereo partly drawn) [Example 1, 3-(4-Chloro-2-hydroxy-3-methanesulfoximinophenylamino)-4-[(R)-1-(5-methylfuran-2-yl)propylamino]cyclobut-3-ene-1,2-dione]
- IC50 (CXCR1 receptor; class symbols): < 200 nM
- IC50 (CXCR2 receptor; class symbols): < 20 nM
- IC50 (human neutrophils; [1]): < 300 nM

SMILES: CCC(CC)Nc1c(Nc2ccc(Cl)c(S(C)(=O)=Nc3ccncc3)c2O)c(=O)c1=O (stereo not shown) [Example 4, 3-{4-Chloro-2-hydroxy-3-methane[(N-pyridin-4-yl)sulfoximino]phenylamino}-4-(1-ethylpropylamino)cyclobut-3-ene-1,2-dione]
- IC50 (CXCR1 receptor; class symbols): ≥ 200 nM
- IC50 (CXCR2 receptor; class symbols): ≥ 20 nM

SMILES: CC[C@@H](Nc1c(Nc2ccc(Cl)c(S(C)(=O)=NCCOC)c2O)c(=O)c1=O)c1ccc(C)o1 (stereo partly drawn) [Example 11, 3-[4-Chloro-2-hydroxy-3-[N-(2-methoxyethyl)-S-methylsulfonimidoyl]anilino]-4-[[(1R)-1-(5-methyl-2-furyl)propyl]amino]cyclobut-3-ene-1,2-dione]
- IC50 (CXCR1 receptor; class symbols): ≥ 200 nM
- IC50 (CXCR2 receptor; class symbols): ≥ 20 nM

SMILES: CC[C@@H](Nc1c(Nc2cccc(S(C)(=O)=NC)c2O)c(=O)c1=O)c1ccc(C)o1 (stereo partly drawn) [Example 8, 3-{2-Hydroxy-3-methane[(N-methyl)sulfoximino]phenylamino}-4-[(R)-1-(5-methylfuran-2-yl)propylamino]cyclobut-3-ene-1,2-dione]
- IC50 (CXCR1 receptor; class symbols): < 200 nM
- IC50 (CXCR2 receptor; class symbols): ≥ 20 nM
- IC50 (human neutrophils; [1]): ≥ 300 nM

SMILES: CC[C@@H](Nc1c(Nc2ccc(Cl)c(S(C)(=O)=NC)c2O)c(=O)c1=O)c1ccc(C)o1 (single isomer, unassigned; (+)) [Example 20]
- IC50 (CXCR1 receptor; class symbols): < 200 nM
- IC50 (CXCR2 receptor; class symbols): < 20 nM
- IC50 (human neutrophils; [1]): < 300 nM

SMILES: CC[C@@H](Nc1c(Nc2cccc(S(C)(=O)=NC)c2O)c(=O)c1=O)c1ccc(C)o1 (single isomer, unassigned; (+)) [Example 17]
- IC50 (CXCR1 receptor; class symbols): ≥ 200 nM

SMILES: CCC(CC)Nc1c(Nc2cccc(S(C)(=O)=NC)c2O)c(=O)c1=O (single isomer, unassigned; (-)) [Example 18]
- IC50 (CXCR1 receptor; class symbols): ≥ 200 nM
- IC50 (CXCR2 receptor; class symbols): ≥ 20 nM
- IC50 (human neutrophils; [1]): ≥ 300 nM

SMILES: CCC(CC)Nc1c(Nc2ccc(Cl)c(S(C)(=O)=NCCN(C)C)c2O)c(=O)c1=O (stereo not shown) [Example 10, 3-[4-Chloro-3-[N-(2-dimethylaminoethyl)-S-methylsulfonimidoyl]-2-hydroxyanilino]-4-(1-ethylpropylamino)cyclobut-3-ene-1,2-dione]
- IC50 (CXCR1 receptor; class symbols): ≥ 200 nM
- IC50 (CXCR2 receptor; class symbols): ≥ 20 nM
